What was measured:
human TLR8 = biological target: T1, human TLR8 (Homo sapiens, UniProt Q9NR97); assay: HEK-Blue hTLR8 SEAP reporter gene agonist assay; assay type: cell-based; conditions: HEK-Blue hTLR8 cells, 16 to 22 hours incubation
T1 construct: host or cells: HEK-Blue hTLR8 (HEK293-derived reporter cells)
T1 sequence (Q9NR97 27-1041): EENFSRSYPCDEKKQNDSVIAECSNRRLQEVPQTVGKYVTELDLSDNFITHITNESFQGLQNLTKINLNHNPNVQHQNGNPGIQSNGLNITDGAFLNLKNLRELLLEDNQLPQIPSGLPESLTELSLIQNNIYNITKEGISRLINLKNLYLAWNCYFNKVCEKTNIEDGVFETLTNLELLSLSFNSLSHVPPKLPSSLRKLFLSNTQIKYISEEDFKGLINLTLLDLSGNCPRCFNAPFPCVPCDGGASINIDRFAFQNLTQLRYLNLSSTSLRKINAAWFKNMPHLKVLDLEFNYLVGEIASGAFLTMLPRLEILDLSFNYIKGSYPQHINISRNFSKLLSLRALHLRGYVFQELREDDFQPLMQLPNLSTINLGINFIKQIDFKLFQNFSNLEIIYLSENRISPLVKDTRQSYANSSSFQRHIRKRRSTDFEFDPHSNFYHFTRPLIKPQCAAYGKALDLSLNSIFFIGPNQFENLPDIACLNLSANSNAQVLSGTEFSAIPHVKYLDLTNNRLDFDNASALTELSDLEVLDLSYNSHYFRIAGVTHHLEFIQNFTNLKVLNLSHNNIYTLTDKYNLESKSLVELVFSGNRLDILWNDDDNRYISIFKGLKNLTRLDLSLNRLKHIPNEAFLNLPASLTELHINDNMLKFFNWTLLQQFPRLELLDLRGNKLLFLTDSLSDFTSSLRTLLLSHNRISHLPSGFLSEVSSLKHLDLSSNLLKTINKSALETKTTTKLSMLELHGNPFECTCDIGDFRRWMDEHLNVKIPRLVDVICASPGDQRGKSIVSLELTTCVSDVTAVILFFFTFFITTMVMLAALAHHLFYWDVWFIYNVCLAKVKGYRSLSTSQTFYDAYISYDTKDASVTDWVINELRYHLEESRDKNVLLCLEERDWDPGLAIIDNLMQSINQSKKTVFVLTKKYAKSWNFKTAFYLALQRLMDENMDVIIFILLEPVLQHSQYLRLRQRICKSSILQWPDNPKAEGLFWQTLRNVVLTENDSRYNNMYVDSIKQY
Protocol: (§1) HEK-Blue™ cells that stably express human TLR7 or TLR8 are used to evaluate the agonistic activity of the compounds on TLR7 or TLR8, which is determined by the induction of the expression of SEAP reporter gene under the control of minimum IFN-β promoter fusion to 5×NF-κB and AP-1 binding sites. The assay is conducted as below:
(§2) HEK-Blue™ hTLR7 (Invivogen, 80,000 cells per well) or HEK-Blue™ hTLR8 (Invivogen, 60,000 cells per well) were added to the 96-well cell culture plate, followed by adding of the test compound. The final concentration of the test compound in the medium ranged from […], and was incubated for 16 to 22 hours. According to the manufacturer's instructions, the HEK-Blue assay reagent Quanti-blue (Invivogen) was used to measure SEAP levels in cell media. Optical density at 650 nm (OD650) was measured by Neo2 multifunction plate reader (Bio-tek). The half effective concentration (EC50) was calculated using GraphPad Prism.

human TLR7 = biological target: T2, human TLR7 (Homo sapiens, UniProt Q9NYK1); assay: HEK-Blue hTLR7 SEAP reporter gene agonist assay; assay type: cell-based; conditions: HEK-Blue hTLR7 cells, 16 to 22 hours incubation
T2 construct: host or cells: HEK-Blue hTLR7 (HEK293-derived reporter cells)
T2 sequence (Q9NYK1 27-1049): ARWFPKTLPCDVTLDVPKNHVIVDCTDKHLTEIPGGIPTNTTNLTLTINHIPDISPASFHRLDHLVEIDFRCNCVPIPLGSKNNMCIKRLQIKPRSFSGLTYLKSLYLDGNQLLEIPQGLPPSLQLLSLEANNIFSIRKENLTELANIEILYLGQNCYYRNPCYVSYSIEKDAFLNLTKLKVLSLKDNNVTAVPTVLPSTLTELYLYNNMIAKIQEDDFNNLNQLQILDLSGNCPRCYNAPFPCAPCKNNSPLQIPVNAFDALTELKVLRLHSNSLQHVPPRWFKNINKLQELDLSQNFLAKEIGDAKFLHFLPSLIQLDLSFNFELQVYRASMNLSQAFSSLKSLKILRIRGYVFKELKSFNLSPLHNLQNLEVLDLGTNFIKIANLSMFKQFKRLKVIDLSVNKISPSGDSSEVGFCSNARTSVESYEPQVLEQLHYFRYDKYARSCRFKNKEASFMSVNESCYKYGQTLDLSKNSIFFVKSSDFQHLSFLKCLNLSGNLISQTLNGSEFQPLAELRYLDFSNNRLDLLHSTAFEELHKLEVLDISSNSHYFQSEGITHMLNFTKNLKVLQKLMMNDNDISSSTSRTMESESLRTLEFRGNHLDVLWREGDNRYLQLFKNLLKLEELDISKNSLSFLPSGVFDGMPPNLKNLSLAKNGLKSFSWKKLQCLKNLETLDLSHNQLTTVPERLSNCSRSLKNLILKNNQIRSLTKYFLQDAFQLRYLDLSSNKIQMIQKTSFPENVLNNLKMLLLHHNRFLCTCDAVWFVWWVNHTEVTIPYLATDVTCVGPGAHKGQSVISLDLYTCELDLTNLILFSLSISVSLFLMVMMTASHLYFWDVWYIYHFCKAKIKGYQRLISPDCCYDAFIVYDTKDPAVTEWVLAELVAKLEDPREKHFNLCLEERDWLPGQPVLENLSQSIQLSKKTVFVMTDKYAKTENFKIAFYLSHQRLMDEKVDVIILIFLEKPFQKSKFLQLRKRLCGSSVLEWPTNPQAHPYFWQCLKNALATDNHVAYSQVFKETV
Protocol: as §1, §2

Row | SMILES | EC50 (human TLR8) | EC50 (human TLR7)
1 | CCC[C@@H](C)Nc1nc(N)nc2ccn(Cc3ccc(C(=O)N4CCN(C)CC4)cc3OC)c(=O)c12 [Compound I-182, (R)-2-amino-6-(2-methoxy-4-(4-methylpiperazine-1-carbonyl)benzyl)-4-(pentan-2-ylamino)pyrido[4,3-d]pyrimidin-5(6H)-one] | 58 nM | 54 nM
2 | CCC[C@@H](C)Nc1nc(N)nc2ccn(Cc3ccc(C(=O)N4C5CNCC4C5)cc3)c(=O)c12 [Compound I-161, 6-(4-(3,6-diazabicyclo[3.1.1]heptane-6-carbonyl)benzyl)-2-amino-4-(((R)-pentan-2-yl)amino)pyrido[4,3-d]pyrimidin-5(6H)-one] | 40 nM | 110 nM
3 | CCC[C@@H](CO)Nc1nc(N)nc2ccn(Cc3ccc(CN4CCN(C)CC4)cc3OC)c(=O)c12 [Compound I-162, (S)-2-amino-4-((1-hydroxypentan-2-yl)amino)-6-(2-methoxy-4-((4-methylpiperazin-1-yl)methyl)benzyl)pyrido[4,3-d]pyrimidin-5(6H)-one] | 10 nM | 20 nM
4 | CCC[C@@H](C)Nc1nc(N)nc2ccn(Cc3ccc(CN4CCCC4)cc3Cl)c(=O)c12 [Compound I-152, (R)-2-amino-6-(2-chloro-4-(pyrrolidin-1-ylmethyl)benzyl)-4-(pentan-2-ylamino)pyrido[4,3-d]pyrimidin-5(6H)-one] | 110 nM | 80 nM
5 | CCCC[C@@H](CO)Nc1nc(N)nc2ccn(Cc3ccc(CN4CCCC4)cc3OC)c(=O)c12 [Compound I-164, (S)-2-amino-4-((1-hydroxyhexan-2-yl)amino)-6-(2-methoxy-4-(pyrrolidin-1-ylmethyl)benzyl)pyrido[4,3-d]pyrimidin-5(6H)-one] | 30 nM | 40 nM
6 | CCC[C@@H](COC)Nc1nc(N)nc2ccn(Cc3ccc(CN4CCCC4)cc3OC)c(=O)c12 [Compound I-163, (S)-2-amino-6-(2-methoxy-4-(pyrrolidin-1-ylmethyl)benzyl)-4-((1-methoxypentan-2-yl)amino)pyrido[4,3-d]pyrimidin-5(6H)-one] | 70 nM | 30 nM
7 | CCCCNc1nc(N)nc2ccn(Cc3ccc(CN4CCCC4)cc3OC)c(=O)c12 [Compound I-2, 2-amino-4-(butylamino)-6-(2-methoxy-4-(pyrrolidin-1-ylmethyl)benzyl)pyrido[4,3-d]pyrimidin-5(6H)-one] | 107 nM | 64 nM
8 | CCC[C@@H](CO)Nc1nc(N)nc2ccn(Cc3ccc(CN4CCCC4)cc3)c(=O)c12 [Compound I-127, (S)-2-amino-4-((1-hydroxypentan-2-yl)amino)-6-(4-(pyrrolidin-1-ylmethyl)benzyl)pyrido[4,3-d]pyrimidin-5(6H)-one] | 3 nM | 44 nM
9 | CCCCNc1nc(N)nc2ccn(Cc3ccc(C(=O)N4CCN(C(C)C)CC4)cc3)c(=O)c12 [Compound I-53, 2-amino-4-(butylamino)-6-(4-(4-isopropylpiperazine-1-carbonyl)benzyl)pyrido[4,3-d]pyrimidin-5(6H)-one] | 92 nM | 61 nM
10 | CCC[C@@H](CCO)Nc1nc(N)nc2ccn(Cc3ccc(CN4CCCC4)cc3)c(=O)c12 [Compound I-118, (S)-2-amino-4-((1-hydroxyhexan-3-yl)amino)-6-(4-(pyrrolidin-1-ylmethyl)benzyl)pyrido[4,3-d]pyrimidin-5(6H)-one] | 52 nM | 40 nM
11 | CCCCNc1nc(N)nc2ccn(Cc3ccc(C(=O)N4CCNCC4)cc3OC)c(=O)c12 [Compound I-72, 2-amino-4-(butylamino)-6-(2-methoxy-4-(piperazine-1-carbonyl)benzyl)pyrido[4,3-d]pyrimidin-5(6H1)-one] | 81 nM | 64 nM
12 | CCC[C@@H](CO)Nc1nc(N)nc2ccn(Cc3ccc(CN(C)C)cc3OC)c(=O)c12 [Compound I-195, (S)-2-amino-6-(4-((dimethylamino)methyl)-2-methoxybenzyl)-4-((1-hydroxypentan-2-yl)amino)pyrido[4,3-d]pyrimidin-5(6H)-one] | 1 nM | 31 nM

— US20250059183A1, “PYRIDINE[4,3-D]PYRIMIDINE COMPOUND AS TLR7/8 AGONIST” (SHANGHAI VISONPHARMA CO., LTD., priority 2021, published 2025)
